Results as given in PubChem BioAssay AID1845212 (Molecular Pharmacology Branch, DTP, NCI, 2023).

Tested on: NCI-H719 tumor spheroids, viability
Experiment: Anticancer human tumor NCI-H719 cell line growth inhibition;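 also: spheroids exposed to compounds for seven days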;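 as to viability, T/C: percent viability relative to DMSO vehicle control as 100%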
Conditions: spheroids with HUVEC and MSC; for IC50: curve of first compound; for viability, T/C: stronger effect = lower value
From the text: Multicellular complex tumor spheroid response to DNA repair inhibitors in combination with DNA-damaging drugs
This study explores the anticancer activities of DNA-damaging drugs and inhibitors of DNA damage repair, both as single agents and in combinations. Complex tumor spheroids comprised of malignant cells, endothelial cells and mesenchymal stem cells served as an in vitro model for human solid tumors. This model system incorporates physiologically relevant features and patient-derived or established malignant cell lines with clinically relevant genetic alterations from many tumor types. Twenty-six patient-derived or established malignant cell lines were evaluated representing sarcoma, melanoma, small cell lung cancer (SCLC), non-small cell lung cancer (NSCLC), as well as bladder, ovarian and pancreatic cancers. The concentration ranges selected for each drug and investigational agent were based upon clinically achievable concentrations if the clinical Cmax of the agent was known.
Compounds. The drugs and compounds olaparib (NSC753686), talazoparib (NSC767125), berzosertib (NSC777718), elimusertib (NSC800525), nedisertib (NSC802822), VX-984 (NSC792969), AZD-1390 (NSC803789), temozolomide (NSC362856), topotecan (NSC609699), trabectedin (NSC813783), staurosporine (NSC755774), and gemcitabine (NSC613327) were obtained from the National Cancer Institute (NCI) Developmental Therapeutics Program Chemical Repository. The FDA-approved anticancer drug set is available from the Developmental Therapeutics Program at https://dtp.cancer.gov/organization/dscb/obtaining/available_plates.htm. […] The stock solutions were prepared in dimethyl sulfoxide (DMSO, Sigma-Aldrich, St. Louis, MO, cat. D2650) at 400-fold the tested concentration and stored at -70 degrees C. Prior to their use, the stock solutions were diluted in fresh medium and the final DMSO concentration in the assay was 0.25% (v/v). All drugs and investigational agents were tested over a range starting from a high concentration at or near the clinical Cmax and decreasing in half-log increments. If the clinical Cmax for an agent had not been determined, the highest concentration tested was 10 microM.
Cell Lines. The patient-derived cancer cell (PDC) lines: 156681-154-R-J1-PDC, 283228-195-R-J1-PDC, 287954-098-R-J1-PDC, 292921-168-R-J2-PDC, 349418-098-R-PDC, 425362-245-T-J1-PDC, 556581-035-R-J1-PDC, and BL0293-F563-PDC were received from the NCI Patient-Derived Models Repository (PDMR, https://pdmr.cancer.gov). The established cell lines HS-SY-2 (RRID:CVCL_8719), MPNST, and SYO-1 (RRID:CVCL_7146) were obtained from the Sloan Kettering Institute. The alveolar soft parts sarcoma cell line ASPS-1 (RRID:CVCL_S738) was established at the NCI and grown from internal seed stocks. The following established cell lines were purchased from the American Type Culture Collection (ATCC, Manassas, VA): G-401 (ATCC, cat. CRL-1441, RRID:CVCL_0270), SW982 (ATCC, cat. HTB-93, RRID:CVCL_1734), VA-ES-BJ (ATCC, cat. CRL-2138, RRID:CVCL_1785), NCI-H719 (ATCC, cat. CRL-5837, RRID:CVCL_1582), NCI-H196 (ATCC, cat. CRL-5823, RRID:CVCL_1509), NCI-H841 (ATCC, cat. CRL-5845, RRID:CVCL_1595), NCI-H1618 (ATCC, cat. CRL-5879, RRID:CVCL_1480), NCI-H1876 (ATCC, cat. CRL-5902, RRID:CVCL_1503), DMS 114 (ATCC, cat. CRL-2066; RRID:CVCL_1174), NCI-H211 (ATCC, cat. CRL-5824; RRID:CVCL_1529), and SW 1271 (ATCC, cat. CRL-2177, RRID:CVCL_1716). The small cell lung cancer cell line COR-L88 was purchased from Sigma-Aldrich (cat. 92031917-1VL, RRID:CVCL_1141). The non-small cell lung cancer cell lines NCI-H226 (RRID:CVCL_1544) and NCI-H322M (RRID:CVCL_1557) were established at the NCI and grown from internal seed stocks. Pooled donor human umbilical vein endothelial cells (HUVEC, Lonza, cat. CC-2519) and human mesenchymal stem cells (hMSC, Lonza, cat. PT-2501) were purchased from Lonza (Walkersville, MD).
Cell Culture. All cells were maintained in an incubator at 37 degrees C and 5% CO2 with 95% humidity. […]

[1] = second compound 0.003 µM, first compound 0.0316 µM
[2] = second compound 0.003 µM, first compound 0.1 µM
[3] = second compound 0.003 µM, first compound 0.316 µM
[4] = second compound 0.003 µM, first compound 1 µM
[5] = second compound 0.003 µM, first compound 3.16 µM
[6] = second compound 0.003 µM, first compound 10 µM

`COc1ccc([C@@H](O)c2cc(-c3ncnc4cc(N5CCOCC5)ccc34)c(F)cc2Cl)nn1` + COc1cc2c(cc1O)CCNC21CSC2c3c(OC(C)=O)c(C)c4c(c3C(COC1=O)N1C(O)C3Cc5cc(C)c(OC)c(O)c5C(C21)N3C)OCO4 showed an IC50 (second compound 30 pM) of 1110 nM, an IC50 (second compound 94.9 pM) of less than 31.6 nM and an IC50 (second compound 0.0003 µM) of less than 31.6 nM. The IC50 (second compound 0.000949 µM) was less than 31.6 nM, the IC50 (second compound 0.003 µM) was less than 31.6 nM and the viability, T/C (second compound 30 pM, first compound 0.0316 µM) was 81.5%. It also gave a viability, T/C (second compound 30 pM, first compound 0.1 µM) of 100%, a viability, T/C (second compound 30 pM, first compound 0.316 µM) of 75.2% and a viability, T/C (second compound 30 pM, first compound 1 µM) of 52.4%. For the same molecule, the viability, T/C (second compound 30 pM, first compound 3.16 µM) was 22%, the viability, T/C (second compound 30 pM, first compound 10 µM) was 3.59% and the viability, T/C (second compound 94.9 pM, first compound 0.0316 µM) was 49.7%. It also gave a viability, T/C (second compound 94.9 pM, first compound 0.1 µM) of 25.2%, a viability, T/C (second compound 94.9 pM, first compound 0.316 µM) of 44% and a viability, T/C (second compound 94.9 pM, first compound 1 µM) of 27.7%. For the same molecule, the viability, T/C (second compound 94.9 pM, first compound 3.16 µM) was 8.27%, the viability, T/C (second compound 94.9 pM, first compound 10 µM) was 3% and the viability, T/C (second compound 0.0003 µM, first compound 0.0316 µM) was 13.6%. It also gave a viability, T/C (second compound 0.0003 µM, first compound 0.1 µM) of 8.22%, a viability, T/C (second compound 0.0003 µM, first compound 0.316 µM) of 10.1% and a viability, T/C (second compound 0.0003 µM, first compound 1 µM) of 6.05%. For the same molecule, the viability, T/C (second compound 0.0003 µM, first compound 3.16 µM) was 3.35%, the viability, T/C (second compound 0.0003 µM, first compound 10 µM) was 1.11% and the viability, T/C (second compound 0.000949 µM, first compound 0.0316 µM) was 8.53%. The viability, T/C (second compound 0.000949 µM, first compound 0.1 µM) was 8.3%, the viability, T/C (second compound 0.000949 µM, first compound 0.316 µM) was 7.46% and the viability, T/C (second compound 0.000949 µM, first compound 1 µM) was 4.41%. The viability, T/C (second compound 0.000949 µM, first compound 3.16 µM) was 1.46%, the viability, T/C (second compound 0.000949 µM, first compound 10 µM) was 0.7% and the viability, T/C [1] was 0.57%. The viability, T/C [2] was 0.58%, the viability, T/C [3] was 0.46% and the viability, T/C [4] was 0.68%. For the same molecule, the viability, T/C [5] was 0.54% and the viability, T/C [6] was 0.45%.

With `[2H]c1nc(C)nc([2H])c1-c1cc(NC[C@@H](C)c2cccc3c(C(=O)NC)ccnc23)ncn1` + CC[C@@]1(O)C(=O)OCc2c1cc1n(c2=O)Cc2cc3c(CN(C)C)c(O)ccc3nc2-1 the IC50 (second compound 0.003 µM) was greater than 10000 nM, the IC50 (second compound 0.00949 µM) was less than 31.6 nM and the IC50 (second compound 0.03 µM) was less than 31.6 nM. The IC50 (second compound 0.0949 µM) was less than 31.6 nM, the IC50 (second compound 0.3 µM) was less than 31.6 nM and the viability, T/C [1] was 51%. For the same molecule, the viability, T/C [2] was 62.2%, the viability, T/C [3] was 63.5% and the viability, T/C [4] was 52%. It also gave a viability, T/C [5] of 66%, a viability, T/C [6] of 51.4% and a viability, T/C (second compound 0.00949 µM, first compound 0.0316 µM) of 10.3%. The viability, T/C (second compound 0.00949 µM, first compound 0.1 µM) was 8.59%, the viability, T/C (second compound 0.00949 µM, first compound 0.316 µM) was 8.43% and the viability, T/C (second compound 0.00949 µM, first compound 1 µM) was 7.06%. It also gave a viability, T/C (second compound 0.00949 µM, first compound 3.16 µM) of 6.95%, a viability, T/C (second compound 0.00949 µM, first compound 10 µM) of 9.89% and a viability, T/C (second compound 0.03 µM, first compound 0.0316 µM) of 7.23%. It also gave a viability, T/C (second compound 0.03 µM, first compound 0.1 µM) of 6.65%, a viability, T/C (second compound 0.03 µM, first compound 0.316 µM) of 6.56% and a viability, T/C (second compound 0.03 µM, first compound 1 µM) of 8.39%. It also gave a viability, T/C (second compound 0.03 µM, first compound 3.16 µM) of 8.61%, a viability, T/C (second compound 0.03 µM, first compound 10 µM) of 8.73% and a viability, T/C (second compound 0.0949 µM, first compound 0.0316 µM) of 7.9%. For the same molecule, the viability, T/C (second compound 0.0949 µM, first compound 0.1 µM) was 7.8%, the viability, T/C (second compound 0.0949 µM, first compound 0.316 µM) was 7.91% and the viability, T/C (second compound 0.0949 µM, first compound 1 µM) was 7.63%. For the same molecule, the viability, T/C (second compound 0.0949 µM, first compound 3.16 µM) was 7.79%, the viability, T/C (second compound 0.0949 µM, first compound 10 µM) was 9.29% and the viability, T/C (second compound 0.3 µM, first compound 0.0316 µM) was 8.56%. The viability, T/C (second compound 0.3 µM, first compound 0.1 µM) was 8.32%, the viability, T/C (second compound 0.3 µM, first compound 0.316 µM) was 8.45% and the viability, T/C (second compound 0.3 µM, first compound 1 µM) was 8.64%. The viability, T/C (second compound 0.3 µM, first compound 3.16 µM) was 8.15% and the viability, T/C (second compound 0.3 µM, first compound 10 µM) was 8.2%.
